Legend:
[1] = test system: NCI-H226; assay: NCI-60 in vitro anticancer screening (SRB); details: NCI-H226, Lung cancer (NSCLC); 10 µM, 48 h
Method: (§1) The cancer screening panel’s human tumor 60 cell lines were cultured in the RPMI 1640 medium with (5%) fetal bovine serum and (2 mM) L-glutamine. For a screening experiment, cells were injected onto 96-well microtiter plates (100 µL), with plating densities varying from 5 to 40 × 10^3 cells per well, depending on different cell lines’ doubling times. Before introducing experimental drugs, the microtiter plates were incubated overnight at 37 °C, 95% air, 5% CO2, and 100% relative humidity after cell injection. TCA was employed to keep each cell line in place overnight, resembling a computation of the cell population for every cell line at the time of the addition of the drug. The experimental drugs were chilled after solubilization in DMSO at 400 times the final maximum test concentration. At the moment of the addition of the drug, the aliquot of the frozen concentrate was thawed and diluted to twice the required final maximum concentration with the complete medium containing (50 µg/mL) gentamicin. […] The bound dye was then solubilized with a (10 mM) trizma base, and absorbance was calculated at 515 nm on an automatic reader. […] The % growth of treated cells was established using seven absorbance measurements and compared to untreated control cells [57].

[2] = test system: CCRF-CEM; assay: NCI-60 in vitro anticancer screening (SRB); details: Leukemia, 10 µM, 48 h
Method: (§2) The cancer screening panel’s human tumor 60 cell lines were cultured in the RPMI 1640 medium with (5%) fetal bovine serum and (2 mM) L-glutamine. For a screening experiment, cells were injected onto 96-well microtiter plates (100 µL), with plating densities varying from 5 to 40 × 10^3 cells per well, depending on different cell lines’ doubling times. Before introducing experimental drugs, the microtiter plates were incubated overnight at 37 °C, 95% air, 5% CO2, and 100% relative humidity after cell injection. TCA was employed to keep each cell line in place overnight, resembling a computation of the cell population for every cell line at the time of the addition of the drug. The experimental drugs were chilled after solubilization in DMSO at 400 times the final maximum test concentration. At the moment of the addition of the drug, the aliquot of the frozen concentrate was thawed and diluted to twice the required final maximum concentration with the complete medium containing (50 µg/mL) gentamicin. The required final concentration of the drug (10 µM) was reached by adding 100 µL aliquots of these definite dilutions of the drug to suitable microtiter wells previously holding a medium of 100 µL. […] The bound dye was then solubilized with a (10 mM) trizma base, and absorbance was calculated at 515 nm on an automatic reader. […]

[3] = test system: EKVX; assay: NCI-60 in vitro anticancer screening (SRB); details: Lung cancer (NSCLC), 10 µM, 48 h
Method: as §1

[4] = test system: NCI/ADR-RES; assay: NCI-60 in vitro anticancer screening (SRB); details: Ovarian cancer, 10 µM, 48 h
Method: as §1

[5] = test system: COLO 205; assay: NCI-60 in vitro anticancer screening (SRB); details: COLO 205, Colon cancer; 10 µM, 48 h
Method: as §1

[6] = test system: UACC-257; assay: NCI-60 in vitro anticancer screening (SRB); details: UACC-257, Melanoma; 10 µM, 48 h
Method: as §1

[7] = test system: NCI-H460; assay: NCI-60 in vitro anticancer screening (SRB); details: NCI-H460, Lung cancer (NSCLC); 10 µM, 48 h
Method: as §1

[8] = test system: OVCAR-4; assay: NCI-60 in vitro anticancer screening (SRB); details: OVCAR-4, Ovarian cancer; 10 µM, 48 h
Method: as §1

[9] = test system: 786-0; assay: NCI-60 in vitro anticancer screening (SRB); details: 786-0, Renal cancer; 10 µM, 48 h
Method: as §1

[10] = test system: SW-620; assay: NCI-60 in vitro anticancer screening (SRB); details: SW-620, Colon cancer; 10 µM, 48 h
Method: as §1

[11] = test system: U251; assay: NCI-60 in vitro anticancer screening (SRB); details: U251, CNS cancer; 10 µM, 48 h
Method: as §1

[12] = test system: SF-268; assay: NCI-60 in vitro anticancer screening (SRB); details: SF-268, CNS cancer; 10 µM, 48 h
Method: as §1

[13] = test system: SK-MEL-28; assay: NCI-60 in vitro anticancer screening (SRB); details: SK-MEL-28, Melanoma; 10 µM, 48 h
Method: as §2

[14] = test system: TK-10; assay: NCI-60 in vitro anticancer screening (SRB); details: TK-10, Renal cancer; 10 µM, 48 h
Method: as §1

[15] = test system: SK-MEL-5; assay: NCI-60 in vitro anticancer screening (SRB); details: SK-MEL-5, Melanoma; 10 µM, 48 h
Method: as §2

[16] = test system: NCI-H522; assay: NCI-60 in vitro anticancer screening (SRB); details: NCI-H522, Lung cancer (NSCLC); 10 µM, 48 h
Method: as §1

[17] = test system: NCI-H23; assay: NCI-60 in vitro anticancer screening (SRB); details: NCI-H23, Lung cancer (NSCLC); 10 µM, 48 h
Method: as §1

[18] = target: T1, telomerase inside living cancer cells A549 (Homo sapiens, UniProt O14746); assay: Living-cell TRAP assay, A549; format: cell-based; details: percent of control cells, 10 µM, 48 h
T1 construct: host or cells: A549
Method: The Telomeric Repeat Amplification Protocol (TRAP) [61] was used to evaluate the activity of telomerase, with some changes that we have previously described [62, 63]. A549 cells (human epithelial cell lung carcinoma, ATCC, Manassas, VA) were lysed in (10 mM) Tris-HCl, pH 7.5, (1 mM) EGTA, (1 mM) MgCl2, (5 mM) 2-mercaptoethanol, (0.1 mM) PMSF, (0.5%) CHAPS, and (10%) glycerol (Sigma-Aldrich, St. Louis, MO, USA) and centrifugation. The supernatants were kept at -80 °C. The BCA-1 Protein Assay Kit was used to assess the protein concentration in cell extracts (Sigma-Aldrich, St. Louis, MO, USA). […] To inactivate telomerase, the cells were elongated for 30 min at 37 °C and 10 min at 96 °C. Copy CX-primer was added to the elongation mixture along with 0.1 μL ([NT]) and 2.5 units Taq-polymerase, followed by the following PCR: 94 °C for 5 min; 30 cycles of 94 °C for 30 s, 50 °C for 30 s, and 72 °C for 40 s, and 72 °C for 5 min. TBE buffer and (12%) nondenaturing PAAG electrophoresis were used to visualize the PCR product. 10 μL of each sample was placed in each well of gel comb. The gels were stained with the SYBR Green I (Invitrogen, Grand Island, NY, USA), then photographed under the UV light in ChemiDocTM XRS imaging system and analyzed with GelAnalyzer 2010.

[19] = test system: MOLT-4; assay: NCI-60 in vitro anticancer screening (SRB); details: MOLT-4, Leukemia; 10 µM, 48 h
Method: as §1

[20] = test system: CAKI-1; assay: NCI-60 in vitro anticancer screening (SRB); details: CAKI-1, Renal cancer; 10 µM, 48 h
Method: as §2

[21] = test system: OVCAR-5; assay: NCI-60 in vitro anticancer screening (SRB); details: OVCAR-5, Ovarian cancer; 10 µM, 48 h
Method: as §1

[22] = test system: HT29; assay: NCI-60 in vitro anticancer screening (SRB); details: HT29, Colon cancer; 10 µM, 48 h
Method: as §1

[23] = test system: IGROV1; assay: NCI-60 in vitro anticancer screening (SRB); details: IGROV1, Ovarian cancer; 10 µM, 48 h
Method: as §1

[24] = test system: HCC-2998; assay: NCI-60 in vitro anticancer screening (SRB); details: HCC-2998, Colon cancer; 10 µM, 48 h
Method: as §1

[25] = test system: SF-539; assay: NCI-60 in vitro anticancer screening (SRB); details: SF-539, CNS cancer; 10 µM, 48 h
Method: as §1

[26] = test system: RPMI-8226; assay: NCI-60 in vitro anticancer screening (SRB); details: RPMI-8226, Leukemia; 10 µM, 48 h
Method: as §1

[27] = test system: HOP-92; assay: NCI-60 in vitro anticancer screening (SRB); details: HOP-92, Lung cancer (NSCLC); 10 µM, 48 h
Method: as §1

[28] = test system: HOP-62; assay: NCI-60 in vitro anticancer screening (SRB); details: HOP-62, Lung cancer (NSCLC); 10 µM, 48 h
Method: as §1

[29] = test system: SNB-75; assay: NCI-60 in vitro anticancer screening (SRB); details: SNB-75, CNS cancer; 10 µM, 48 h
Method: as §1

[30] = test system: A498; assay: NCI-60 in vitro anticancer screening (SRB); details: A498, Renal cancer; 10 µM, 48 h
Method: as §2

[31] = test system: K-562; assay: NCI-60 in vitro anticancer screening (SRB); details: K-562, Leukemia; 10 µM, 48 h
Method: as §1

[32] = test system: OVCAR-8; assay: NCI-60 in vitro anticancer screening (SRB); details: OVCAR-8, Ovarian cancer; 10 µM, 48 h
Method: as §1

[33] = test system: SNB-19; assay: NCI-60 in vitro anticancer screening (SRB); details: SNB-19, CNS cancer; 10 µM, 48 h
Method: as §1

T1 sequence (O14746 whole entry): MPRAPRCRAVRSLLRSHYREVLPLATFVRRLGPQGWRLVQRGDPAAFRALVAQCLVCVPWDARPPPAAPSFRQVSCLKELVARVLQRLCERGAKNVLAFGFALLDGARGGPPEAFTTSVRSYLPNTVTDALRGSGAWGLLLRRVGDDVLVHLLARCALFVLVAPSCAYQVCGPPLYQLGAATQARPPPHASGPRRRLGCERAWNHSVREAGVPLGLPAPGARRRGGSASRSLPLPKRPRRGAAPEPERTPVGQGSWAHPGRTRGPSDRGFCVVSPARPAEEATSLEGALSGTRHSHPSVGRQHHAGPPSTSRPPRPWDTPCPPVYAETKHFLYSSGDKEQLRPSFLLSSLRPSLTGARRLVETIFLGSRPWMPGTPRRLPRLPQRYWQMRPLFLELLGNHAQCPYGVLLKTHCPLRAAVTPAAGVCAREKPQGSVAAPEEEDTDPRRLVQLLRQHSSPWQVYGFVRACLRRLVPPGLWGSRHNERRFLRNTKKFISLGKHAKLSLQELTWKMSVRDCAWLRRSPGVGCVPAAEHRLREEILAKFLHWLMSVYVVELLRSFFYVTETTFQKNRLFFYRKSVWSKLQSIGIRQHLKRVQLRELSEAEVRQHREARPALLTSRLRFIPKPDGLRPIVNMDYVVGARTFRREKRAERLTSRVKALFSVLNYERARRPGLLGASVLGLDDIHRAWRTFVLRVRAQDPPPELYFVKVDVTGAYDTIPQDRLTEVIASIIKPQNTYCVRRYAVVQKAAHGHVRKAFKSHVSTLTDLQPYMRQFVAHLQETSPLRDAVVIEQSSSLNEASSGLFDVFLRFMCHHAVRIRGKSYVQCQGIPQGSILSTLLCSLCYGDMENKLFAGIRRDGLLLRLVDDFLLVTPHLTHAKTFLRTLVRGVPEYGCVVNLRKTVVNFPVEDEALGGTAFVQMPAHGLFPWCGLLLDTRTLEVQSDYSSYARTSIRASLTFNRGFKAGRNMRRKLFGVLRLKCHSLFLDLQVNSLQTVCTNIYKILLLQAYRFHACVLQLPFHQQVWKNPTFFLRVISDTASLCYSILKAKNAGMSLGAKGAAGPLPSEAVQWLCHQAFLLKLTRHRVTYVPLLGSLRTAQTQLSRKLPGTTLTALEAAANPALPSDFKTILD
T1 sequence (O60832 whole entry partner): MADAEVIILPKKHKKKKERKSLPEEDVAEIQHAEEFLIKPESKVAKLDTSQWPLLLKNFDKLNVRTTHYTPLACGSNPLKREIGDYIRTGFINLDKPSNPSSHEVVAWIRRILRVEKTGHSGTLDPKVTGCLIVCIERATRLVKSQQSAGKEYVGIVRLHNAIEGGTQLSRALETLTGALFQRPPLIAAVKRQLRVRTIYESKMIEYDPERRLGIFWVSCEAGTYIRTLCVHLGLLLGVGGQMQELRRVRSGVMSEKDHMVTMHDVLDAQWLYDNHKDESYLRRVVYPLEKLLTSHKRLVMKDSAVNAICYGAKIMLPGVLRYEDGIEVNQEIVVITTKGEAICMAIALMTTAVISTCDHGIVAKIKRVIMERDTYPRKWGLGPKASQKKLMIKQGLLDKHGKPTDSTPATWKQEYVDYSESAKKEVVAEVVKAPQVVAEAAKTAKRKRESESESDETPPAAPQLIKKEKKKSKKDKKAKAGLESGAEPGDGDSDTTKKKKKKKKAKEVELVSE
T1 sequence (Q9NX24 whole entry partner): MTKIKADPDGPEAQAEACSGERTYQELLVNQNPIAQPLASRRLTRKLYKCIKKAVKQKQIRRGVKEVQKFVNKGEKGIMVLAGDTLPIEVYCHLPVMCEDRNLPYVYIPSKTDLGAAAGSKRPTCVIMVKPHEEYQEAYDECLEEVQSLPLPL
T1 sequence (Q9NPE3 whole entry partner): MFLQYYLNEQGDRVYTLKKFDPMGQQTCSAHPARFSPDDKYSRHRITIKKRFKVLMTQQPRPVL
T1 sequence (Q9NY12 whole entry partner): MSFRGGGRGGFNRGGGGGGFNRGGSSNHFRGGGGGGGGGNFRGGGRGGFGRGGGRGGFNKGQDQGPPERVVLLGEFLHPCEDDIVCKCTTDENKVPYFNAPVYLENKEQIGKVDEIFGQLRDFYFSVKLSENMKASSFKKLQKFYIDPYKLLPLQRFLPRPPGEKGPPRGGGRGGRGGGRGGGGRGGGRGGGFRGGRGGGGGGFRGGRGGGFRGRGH
T1 sequence (Q9BUR4 whole entry partner): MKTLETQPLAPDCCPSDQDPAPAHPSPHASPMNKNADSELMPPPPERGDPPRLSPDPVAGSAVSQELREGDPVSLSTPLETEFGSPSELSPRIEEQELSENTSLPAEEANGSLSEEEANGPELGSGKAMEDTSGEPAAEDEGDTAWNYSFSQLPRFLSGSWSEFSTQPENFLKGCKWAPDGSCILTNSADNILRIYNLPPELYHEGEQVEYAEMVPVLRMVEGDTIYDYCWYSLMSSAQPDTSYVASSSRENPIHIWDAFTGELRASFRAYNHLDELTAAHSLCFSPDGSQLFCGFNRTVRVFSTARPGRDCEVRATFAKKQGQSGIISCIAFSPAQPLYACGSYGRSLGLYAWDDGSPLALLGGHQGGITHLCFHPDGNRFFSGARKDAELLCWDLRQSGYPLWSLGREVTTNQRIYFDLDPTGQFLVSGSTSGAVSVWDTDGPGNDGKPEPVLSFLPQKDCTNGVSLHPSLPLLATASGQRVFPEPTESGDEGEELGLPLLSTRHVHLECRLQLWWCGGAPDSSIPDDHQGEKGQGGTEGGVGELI

N#C/C(=C\c1ccc2ccccc2c1)C(=O)Nc1sc2c(c1C#N)CCCC2 [Compound 36b, (2E)-2-Cyano-N-(3-cyano-4,5,6,7-tetrahydro-1-benzothiophen-2-yl)-3-(naphthalen-2-yl)prop-2-enamide]
Growth Percent [1]: 89.78% | Growth Percent [2]: 104.69% | Growth Percent [3]: 92.47% | Growth Percent [4]: 99.44% | Growth Percent [5]: 103.10% | Growth Percent [6]: 102.32% | Growth Percent [7]: 102.88% | Growth Percent [8]: 100.16% | Growth Percent [9]: 101.2% | Growth Percent [10]: 103.69% | Growth Percent [11]: 98.73% | Growth Percent [12]: 104.45% | Growth Percent [13]: 102.31% | Growth Percent [14]: 113.35% | Growth Percent [15]: 97.65% | Growth Percent [16]: 94.31% | Growth Percent [17]: 94.56% | % Telomerase Activity in Cancer Cells [18]: 18.1 ± 5.4% | Growth Percent [19]: 100.37% | Growth Percent [20]: 94.28% | Growth Percent [21]: 104.98% | Growth Percent [22]: 112.60% | Growth Percent [23]: 103.06% | Growth Percent [24]: 114.98% | Growth Percent [25]: 98.71% | Growth Percent [26]: 99.85% | Growth Percent [27]: 90.75% | Growth Percent [28]: 98.36% | Growth Percent [29]: 101.09% | Growth Percent [30]: 99.38% | Growth Percent [31]: 99.98% | Growth Percent [32]: 102.91% | Growth Percent [33]: 100.30%

From PMC9025901, “New Genetic Bomb Trigger: Design, Synthesis, Molecular Dynamics Simulation, and Biological Evaluation of Novel BIBR1532-Related Analogs Targeting Telomerase against Non-Small Cell Lung Cancer” (Pharmaceuticals, 2022)
